Test system: DNBS-induced colitis
Experiment: DNBS-induced experimental colitis in mice, oral administration
Format: in vivo
Details: day four after DNBS, MWL001 50 mg/kg oral daily
Method: In this study, the effect of MWL001 on pro-inflammatory mediators in DNBS-induced experimental colitis in mice was evaluated. In particular it was observed that there was no expression of TNF-α, CD4, TGF-13, CD25 in the colon tissue from sham-treated mice. MWL001 and DEX were administered orally and daily starting at six hours after the DNBS challenge.
Colitis was induced with a very low dose of 2,4-dinitrobenzene sulfonic acid (DNBS) (4 mg per mouse) by using a modification of the method first described in mice. […] Mice were anesthetized by Enflurane. DNBS (4 mg in 100 μl of 50% ethanol) was injected into the rectum through a catheter inserted 4.5 cm proximally to the anus. The carrier alone (100 μl of 50% ethanol) was administered in control experiments. Thereafter, the animals were kept for 15 minutes in a Trendelenburg position to avoid reflux. […] On Day four, the animals were weighed and anaesthetized with chloral hydrate, and their abdomen was opened by a midline incision. The colon was removed, freed from surrounding tissues, opened along the antimesenteric border and processed for histology.
TNF-α and IL-6 levels were evaluated and colon tissues collected at four days after DNBS administration. Briefly, portions of terminal colon were homogenized as previously described in phosphate-buffered saline (PBS, ICN Biomedicals, Milan, Italy) containing two mmol/L of phenyl-methyl sulfonyl fluoride (PMSF, Sigma Chemical Co.). The assay was carried out using a colorimetric, commercial kit (R&D system Milan, Italy) according to the manufacturer instructions. All cytokines determinations were performed in duplicate serial dilutions.
At four days after DNBS administration, colon tissues were fixed in 10% (w/v) PBS-buffered formaldehyde and 7 μm sections were prepared from paraffin embedded tissues. After deparaffinization, endogenous peroxidase was quenched with 0.3% (v/v) hydrogen peroxide in 60% (v/v) methanol for 30 min. The sections were permeabilized with 0.1% (w/v) Triton X-100 in PBS for 20 min. Non-specific adsorption was minimized by incubating the section in 2% (v/v) normal goat serum in PBS for 20 min. Endogenous biotin or avidin binding sites were blocked by sequential incubation for 15 min with biotin and avidin (Vector Laboratories, Burlingame, Calif.), respectively. Sections were incubated overnight with: 1) purified polyclonal antibody directed towards CD4 (Santa Cruz Biotechnology, 1:500 in PBS, v/v) or 2) with purified anti-CD25 (Santa Cruz Biotecnology 1:500 in PBS, w/v) or 3) with anti- TNF-α polyclonal antibody (Santa Cruz Biotechnology, N-19:sc-1350, 1:500 in PBS, v/v) or 4) with anti-TGF-β polyclonal antibody (Santa Cruz, 1:500 in PBS, v/v).
Sections were washed with PBS, and incubated with a secondary antibody. Specific labelling was detected with a biotin-conjugated goat anti-rabbit IgG and avidin-biotin peroxidase complex (Vector Laboratories, Burlingame, Calif.).

With `CCC=CCC=CCC=CCC=CCC=CCC=CCCC(=O)N1CC(O)CC1C(=O)O` (stereo not drawn) [MWL001] the IL-6 colon levels (colorimetric kit) was “significant reduction”, the TNF-α colon levels (colorimetric kit) was “significant reduction” and the “expression of CD4 in colon tissue” value (immunostaining) was “significantly reduced”. The “expression of CD25 in colon tissue” value (immunostaining) was “significantly reduced”, the “expression of TGF-β in colon tissue” value (immunostaining) was “significantly reduced” and the “expression of TNF-α in colon tissue” value (immunostaining) was “significantly reduced”.
